Consider 50 molecules from patent publication US9724351B2, “Compounds for the treatment of paramoxyvirus viral infections” (priority 2012, dated 2017).

Series [1] relates to Respiratory Syncytial Virus (RSV) long strain (ATCC#VR-26). The series can be described thus: RSV Antiviral Assay (CPE reduction assay). The format is cell-based. To be noted: human respiratory syncytial virus, 120 h; HEp-2 cells infected with RSV long strain, 5 days, CCK-8 readout; bins (Table 2: less than 1 μM; Table 3: equal to or higher than 1 μM and less than 50 μM); read-out: 50% effective concentration (EC50). The method in brief: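 Cytopathic-effect protection measured after 5 days at 37 °C, 5% CO2 via CCK-8 dehydrogenase readout at 450 nm (630 nm reference), EC50 regressed from mean O.D. Host HEp-2 cells received RSV long strain at 100 TCID50/well; compound 9-point ⅓ series starting 100 μM or 1 μM, 1% DMSO, duplicate wells.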

The nature of series [2]: Cytotoxicity Determination. It is filed as cell-based. The settings on record: human, HEp-2 cells, without addition of virus, CCK-8 readout, bins (Table 4: greater than 100 μM; Table 5: equal to or less than 100 μM and greater than 10 μM), read-out: 50% cytotoxicity concentration (CC50). Put shortly:
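CC50 was derived from CCK-8 optical density after a 3-4 h reagent incubation. Before that, cells without virus had been treated for 5 days at 37 °C, 5% CO2 with compound at seven ½-step final concentrations from 100 μM, in duplicate wells.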

On to `COc1ccc(C(=O)NCC(=O)c2ccnc(-c3csc4c(F)cccc34)c2O)cc1OC` [Compound 2102], for which, in series [1], the EC50 lay in the range of 1 to 50 µM. Besides, the CC50 at 5 days in series [2] fell in the range of 10 to 100 µM.
In the case of `COc1ccc(C(=O)NCC(=O)N/N=C(\CO)c2csc3ccccc23)cc1OC` [Compound 442], in series [1], the EC50 fell in the range of 1 to 50 µM. The CC50 at 5 days in series [2] is more than 100 µM.
As to `COc1cc(C(=O)NCC(=O)N(C)/N=C(\C)c2csc3c(F)cccc23)ccc1OCCO` [Compound 651], the EC50 in series [1] is less than 1 µM. Moreover, in series [2], the CC50 at 5 days was more than 100 µM.
With `C=C(C)c1cc(C(=O)CNC(=O)c2ccc(OC)c(OC)c2)nc(-c2csc3c(F)cccc23)c1` [Compound 1237], the EC50 in series [1] was less than 1 µM. Besides, the CC50 at 5 days in series [2] lay within 10 to 100 µM.
In the same order, the values of `COc1ccc(C(=O)NCC(=O)c2cn(C)c(-c3csc4c(F)cccc34)n2)cc1OC` [Compound 1228] are 1 to 50 µM and 10 to 100 µM.
The matching figures for `COc1cc(Cl)c(C(=O)NCC(=O)N/N=C(\C)c2csc3ccccc23)cc1OC` [Compound 482]: 1 to 50 µM and 10 to 100 µM.
The matching figures for `COc1ccc(C(=O)NCC(=O)c2cc(C=C(C)C)cc(-c3csc4c(F)cccc34)n2)cc1OC` [Compound 1238]: 1 to 50 µM and more than 100 µM.
With `COc1ccc(C(=O)NCC(=O)N/N=C(\CCCC(C)C)c2csc3ccccc23)cc1OC` [Compound 489], the EC50 in series [1] lay in the range of 1 to 50 µM. For the same molecule, the CC50 at 5 days in series [2] is 10 to 100 µM.
The matching figures for `COC/C(=N\NC(=O)CNC(=O)c1ccc(OC)c(OC)c1)c1csc2ccccc12` [Compound 443]: 1 to 50 µM and more than 100 µM.
Turning to `CCCCCC/C(=N\NC(=O)CNC(=O)c1ccc(OC)c(OC)c1)c1csc2ccccc12` [Compound 453], the EC50 in series [1] lay in the range of 1 to 50 µM. Moreover, in series [2], the CC50 at 5 days fell in the range of 10 to 100 µM.
`COc1cc(-c2nc(C(=O)CNC(=O)c3ccc(OCCO)c(OC)c3)ccc2OC)ccc1F` [Compound 1329]: in series [1], the EC50 is less than 1 µM. For the same molecule, the CC50 at 5 days in series [2] was more than 100 µM.
Regarding `COC(=O)c1cc(C(=O)CNC(=O)c2ccc(OCCO)c(OC)c2)nc(-c2csc3c(F)cccc23)c1` [Compound 1257], the EC50 in series [1] lay in the range of 1 to 50 µM. Further, the CC50 at 5 days in series [2] was more than 100 µM.
In the same order, the values of `COc1ccc(C(=O)NCC(=O)c2ccc(OC)c(-c3csc(C(=O)O)c3)n2)cc1OC` [Compound 1537] are 1 to 50 µM and more than 100 µM.
In the same order, the values of `COc1ccc(C(=O)NCC(=O)c2ccc(O)c(-c3csc4c(F)cccc34)n2)cc1OC` [Compound 1335] are less than 1 µM and 10 to 100 µM.
With `COc1cc(C(=O)NCC(=O)c2ccc(OC)c(-c3ccnc(F)c3)n2)ccc1OCCO` [Compound 1610], the EC50 in series [1] lay in the range of 1 to 50 µM. Further, the CC50 at 5 days in series [2] was more than 100 µM.
On to `CC/C(=N\NC(=O)CNC(=O)c1ccc(OC)c(OC)c1)c1csc2ccccc12` [Compound 415], for which the EC50 in series [1] is less than 1 µM. In series [2], the CC50 at 5 days lay within 10 to 100 µM.
As for `COc1ccc(C(=O)NCC(=O)c2ccc(OC)c(-c3cccc(F)c3F)n2)cc1OC` [Compound 1526], in series [1], the EC50 is 1 to 50 µM. Moreover, the CC50 at 5 days in series [2] was more than 100 µM.
Take `CCOCC/C(=N\NC(=O)CNC(=O)c1ccc(OC)c(OC)c1)c1csc2ccccc12` [Compound 400-1]: the EC50 in series [1] was less than 1 µM. The CC50 at 5 days in series [2] is more than 100 µM.
Take `COc1cc(C(=O)N[C@@H](CO)C(=O)c2ccc(OC)c(-c3ccc(F)c(Cl)c3)n2)ccc1OCCO` [Compound 1832]: in series [1], the EC50 was less than 1 µM. Also, the CC50 at 5 days in series [2] lay in the range of 10 to 100 µM.
The matching figures for `COc1cc(C(=O)NCC(=O)c2ccc(OC)c(-c3ccnc(Cl)c3)n2)ccc1OCCO` [Compound 1611]: 1 to 50 µM and more than 100 µM.
Consider `COc1ccc(C(=O)N2CCCCC2C(=O)c2ccc(OC)c(-c3csc4c(F)cccc34)n2)cc1OC` (stereo not shown) [Compound 1800], for which the EC50 in series [1] lay in the range of 1 to 50 µM. Also, in series [2], the CC50 at 5 days was in the range of 10 to 100 µM.
The matching figures for `COCC/C(=N/NC(=O)CNC(=O)c1ccc(OC)c(OC)c1)c1csc2ccccc12` [Compound 494]: less than 1 µM and more than 100 µM.
In the same order, the values of `CCN(CC)c1ccc(C(=O)NCC(=O)N/N=C/c2csc3ccccc23)cc1` [Compound 235] are 1 to 50 µM and more than 100 µM.
The matching figures for `CCCCC/C(=N\NC(=O)CNC(=O)c1ccc(OC)c(OC)c1)c1csc2ccccc12` [Compound 448A]: 1 to 50 µM and 10 to 100 µM.
For the molecule `COc1cccc(/C(=N/NC(=O)CNC(=O)c2ccc(OC)c(OC)c2)C(F)(F)F)c1` [Compound 450], in series [1], the EC50 was 1 to 50 µM. Moreover, the CC50 at 5 days in series [2] is more than 100 µM.
In the same order, the values of `COc1ccc(C(=O)NCC(=O)N/N=C/c2cccc3ccccc23)cc1OC` [Compound 402] are 1 to 50 µM and 10 to 100 µM.
Turning to `COc1cc(C(=O)NCC(=O)c2ccc(OCC3CC3)c(-c3csc4c(F)cccc34)n2)ccc1OCCO` [Compound 2617], the EC50 in series [1] was less than 1 µM. In addition, the CC50 at 5 days in series [2] was more than 100 µM.
In the case of `COc1cc(C(=O)NC(CCO)C(=O)c2ccc(OC)c(-c3ccc(F)c(Cl)c3)n2)ccc1OCCO` (stereo not shown) [Compound 1837], the EC50 in series [1] is less than 1 µM. Besides, in series [2], the CC50 at 5 days fell in the range of 10 to 100 µM.
For the molecule `COc1ccc(C(=O)NCC(=O)NN=C(c2ccccc2)c2ccccc2)cc1OC` [Compound 440], the EC50 in series [1] is 1 to 50 µM. In addition, the CC50 at 5 days in series [2] is more than 100 µM.
In the same order, the values of `COc1cc(C(=O)NCC(=O)c2ccc(OC)c(-c3c[nH]c4c(F)cccc34)n2)ccc1OCCO` [Compound 1342] are less than 1 µM and more than 100 µM.
As for `COc1cc(C(=O)N[C@@H](CCO)C(=O)c2ccc(OC)c(-c3ccc(F)c(C(F)(F)F)c3)n2)ccc1OCCO` [Compound 1807], the EC50 in series [1] was less than 1 µM. Besides, in series [2], the CC50 at 5 days is more than 100 µM.
In the same order, the values of `CNc1cc(C(=O)CNC(=O)c2ccc(OC)c(OC)c2)nc(-c2csc3c(F)cccc23)c1` [Compound 1220] are less than 1 µM and more than 100 µM.
As to `COc1cc(C(=O)NCC(=O)c2ccc(OC)c(-c3ccc(C)cc3)n2)ccc1OCCO` [Compound 1606], the EC50 in series [1] was less than 1 µM. The CC50 at 5 days in series [2] was more than 100 µM.
Turning to `COc1cc(C(=O)NCC(=O)c2cccc(-c3csc4c(F)cccc34)n2)ccc1OCC(N)=O` [Compound 1247], in series [1], the EC50 was less than 1 µM. The CC50 at 5 days in series [2] is 10 to 100 µM.
The matching figures for `COc1cc(C(=O)NC(C)C(=O)c2ccc(OC)c(-c3csc4c(F)cccc34)n2)ccc1OCCO` (stereo not shown) [Compound 1808]: less than 1 µM and 10 to 100 µM.
`COc1cc(C(=O)NCC(=O)c2ccc(OC)c(-c3c(Cl)sc4c(F)cccc34)n2)ccc1OCCO` [Compound 2621]: in series [1], the EC50 is less than 1 µM. The CC50 at 5 days in series [2] is more than 100 µM.
The matching figures for `COCC/C(=N/NC(=O)CNC(=O)c1ccc(OCCO)c(OC)c1)c1csc2c(F)cccc12` [Compound 603B]: less than 1 µM and more than 100 µM.
Regarding `COc1ccc(C(=O)NCC(=O)c2ccc(OC)c(-c3ccc(C#N)cc3)n2)cc1OC` [Compound 1505], in series [1], the EC50 was less than 1 µM. Further, the CC50 at 5 days in series [2] is more than 100 µM.
In the same order, the values of `COc1ccc(C(=O)NCC(=O)c2ccc(OC)c(-c3ccccc3F)n2)cc1OC` [Compound 1528] are 1 to 50 µM and more than 100 µM.
In the same order, the values of `CCOc1ccc(C(=O)NCC(=O)N/N=C/c2csc3ccccc23)cc1OCC` [Compound 231] are 1 to 50 µM and 10 to 100 µM.
In the same order, the values of `COc1cc(C(=O)NCC(=O)N2CCCC(c3csc4c(F)cccc34)=N2)ccc1OCCO` [Compound 1101] are less than 1 µM and more than 100 µM.
For the molecule `COc1ccc(C(=O)NCC(=O)c2cc(C(C)(C)C)cc(-c3csc4c(F)cccc34)n2)cc1OC` [Compound 1252], the EC50 in series [1] was less than 1 µM. In addition, the CC50 at 5 days in series [2] is more than 100 µM.
In the same order, the values of `COc1ccc(C(=O)NCC(=O)N/N=C(\CCc2ccccc2)c2csc3ccccc23)cc1OC` [Compound 495] are 1 to 50 µM and 10 to 100 µM.
As for `COc1cc(C(=O)CNC(=O)c2ccc(OCCCO)c(OC)c2)nc(-c2csc3c(F)cccc23)c1` [Compound 1216], the EC50 in series [1] was less than 1 µM. Also, the CC50 at 5 days in series [2] was 10 to 100 µM.
The matching figures for `CNCc1ccc(C(=O)NCC(=O)N/N=C(\CCOC)c2csc3c(F)cccc23)cc1OC` [Compound 400-24]: 1 to 50 µM and more than 100 µM.
On to `COc1ccc(C(=O)NCC(=O)c2nc(-c3csc4c(F)cccc34)cn2C)cc1OC` [Compound 1353], for which the EC50 in series [1] lay in the range of 1 to 50 µM. Moreover, the CC50 at 5 days in series [2] was more than 100 µM.
Take `COc1ccc(C(=O)NCC(=O)c2cn(C)cc(-c3csc4c(F)cccc34)c2=O)cc1OC` [Compound 1338]: the EC50 in series [1] is 1 to 50 µM. Further, the CC50 at 5 days in series [2] was 10 to 100 µM.
The matching figures for `CCCn1nc(-c2csc3c(F)cccc23)nc1C(=O)CNC(=O)c1ccc(OC)c(OC)c1` [Compound 2203]: 1 to 50 µM and more than 100 µM.
The matching figures for `COc1ccc(C(=O)NCC(=O)c2ccc(OC)c(-c3ccc4cnn(C)c4c3)n2)cc1OC` [Compound 1503]: 1 to 50 µM and 10 to 100 µM.
As for `CCOc1ccc(C(=O)NCC(=O)N/N=C(\CCOC)c2csc3c(F)cccc23)cc1OC` [Compound 463A], the EC50 in series [1] is less than 1 µM. The CC50 at 5 days in series [2] is more than 100 µM.
